Results as given in patent publication US20260216374A1, “POU5F1B INHIBITORS” (ECOLE POLYTECHNIQUE FEDERALE DE LAUSANNE (EPFL), priority 2023, published 2026).
“Also recorded” adds a separate entry of the source. Residues, ends and D or L forms follow the SMILES beside them. *: point of attachment. Cbz = O=C(OCc1ccccc1)*

Experiments:
Assay type in all cases: cell-based, human
[1] = test system: POU5F1B-DCK; assay: Dose response assay, BVdU survival of POU5F1B-DCK-overexpressing SW480 cells (POU5F1B-DCK degradation); details: 0.39-25 μM compound, 500 μM BVdU, reading at 96 h and 120 h
Protocol: Dose response assays. POU5F1B-DCK-, DCK-overexpressing, and wild type SW480 cells were seeded in 96-well plates at a cell density of 2,000 cells/well in 100 μl of media. At the same time of cell seeding, 100 μM Capivasertib, OXA-06 and Laurocapram dissolved in DMSO were diluted in medium and 20 μl were dispensed in the 96-wells to achieve final concentrations of 0.39, 0.78, 1.56, 3.12, 6.25, 12.5 and 25 μM, keeping the final concentration of DMSO at 0.2% in each well. The next day, 500 μM BVdU (Brivudine H27853, Thermo Fisher) was added in all wells except for non-treated ones. Plate reading was done at 96 h and 120 h post BvDU treatment by measuring fluorescence after incubating the cells with PrestoBlue™ (A13262, Invitrogen) for 30 min.

[2] = test system: POU5F1B; assay: Radiolabelling pulse-chase experiment to determine POU5F1B half-life; details: POU5F1B-overexpressing SW480 cells; ROCK inhibitors 20 μM 24 hours; MG132 10 μM 3 hours
Protocol: Radiolabelling experiment to determine POU5F1B half-life. POU5F1B-overexpressing SW480 cells treated for 24 hours with capivasertib (20 μM), oxa-06 (20 μM) and Y-27632 (20 μM) ROCK inhibitors, and 3 hours with MG132 (10 μM) proteasome inhibitor, were washed with methionine/cysteine-free medium, incubated for a 20-min pulse at 37° C. with 50 μCi/ml [35S]methionine/cysteine (Hartman Analytics), washed, and further incubated for different times at 37° C. in complete medium with a 10-fold excess of nonradioactive methionine and cysteine. POU5F1B protein was HA-immunoprecipitated, eluted and loaded in SDS-PAGE gels, and autoradiographies were quantified using the Typhoon Imager (Image QuantTool, GE healthcare).

[3] = test system: POU5F1B; assay: Immunoprecipitation of HA-tagged POU5F1B followed by Western blot with phosphoserine-specific antibody; details: HA-tagged POU5F1B overexpressed in SW480 cells
Protocol: Immunoprecipitation. Cells were washed three times PBS, lysed 30 min at 4° C. in the following Buffer (0.5% Nonidet P-40, 500 mM Tris pH 7.4, 20 mM EDTA, 10 mM NaF, 2 mM benzamidin and protease inhibitor cocktail (Roche)), and centrifuged 3 min at 5000 rpm. Supernatants were subjected to preclearing with mouse IgG-agarose beads (Sigma A0919) prior immunoprecipitation reaction. Supernatants were incubated overnight with anti HA-agarose beads (Sigma A2095). Similar elution volumes and protein quantities, for the IPs and the inputs, respectively, were submitted to SDS-PAGE and analyzed by immunoblotting using anti-ubiquitin […] (Santa Cruz Biotechnology sc-8017, 1:1,000), HRP-conjugated anti-HA (clone 3F10 Roche 12013819001, 1:1,000), anti-phosphoserine ([…], Sigma) and HRP-conjugated anti-mouse antibody.

[4] = test system: POU5F1B; assay: Immunofluorescence of HA-tagged POU5F1B localization in SW480 cells; details: TAK-243 at 1 μM for 5 hours
Protocol: Immunofluorescence. Cell lines were plated on glass coverslips into 24-well plates and cultured for 3 days up to 70% confluence in 500 ng ml^−1 doxycycline-containing medium. When needed, cells were treated with TAK-243, inhibitor of the ubiquitin activating enzyme, at 1 μM for 5 hours. Growth medium was refreshed (1 ml) prior a 15 min fixation with 1 ml 8% paraformaldehyde (PFA) added dropwise. Cells were washed three times with PBS, permeabilized with 0.1% saponin PBS for 20 min, and blocked with 1% BSA 0.1% saponin PBS for 30 min before incubation with anti-HA (bioLegend, Covance catalog #MMS-101P, 1:1,000) antibody in 1% BSA 0.1% saponin PBS 2 h at room temperature (RT) under agitation. Samples were washed three times with PBS and incubated with Alexa 647-conjugated (A647) anti-mouse antibody (1:1,000) in 1% BSA 0.1% saponin PBS for 40 min at RT. Three final washes were performed before mounting the slides in Vectashield with DAPI (Vector Laboratories). Images were acquired on a ZEISS LSM 700 confocal microscopy and analyzed with Fiji software.

Compound	POU5F1B(-DCK) degradation, read as cell survival after BVdU treatment [1]	half-life of POU5F1B (pulse-chase) [2]	wild type POU5F1B phosphoserine signal [3]	POU5F1B subcellular localization [4]
NC1(C(=O)N[C@@H](CCO)c2ccc(Cl)cc2)CCN(c2nc[nH]c3nccc2-3)CC1 [capivasertib]	degraded	reduced	decreases	–
C[C@@H](N)[C@H]1CC[C@H](C(=O)Nc2ccncc2)CC1 [Y-27632]	–	reduced	decreases	–
Fc1ccccc1CNCc1ccc(-c2ccnc3[nH]ccc23)cc1 [OXA-06]	degraded	reduced	decreases	–
CCCCCCCCCCCCN1CCCCCC1=O [laurocapram]	degraded	–	–	–
CC(C)C[C@@H](C=O)NC(=O)[C@H](CC(C)C)NC(=O)[C@H](CC(C)C)NC(=O)OCc1ccccc1 [MG132] (Cbz-Leu-Leu-Leu-aldehyde)	–	stabilized	–	–
NS(=O)(=O)OC[C@H]1C[C@@H](Nc2ccnc3cc(-c4cccc(SC(F)(F)F)c4)nn23)[C@H](O)[C@@H]1O [TAK-243]	–	–	–	triggers the re-localization of POU5F1B to the nucleus; also recorded: re-localization from the cytoplasm to the nucleus
